Experimental data published in patent publication US20220305012A1, “L[…] TREATING SLEEP ISSUES” (EISAI R&D MANAGEMENT CO., LTD., priority 2019, published 2022).

How the values were obtained:
Format in all cases: in vivo, human
[1] = test system: Subjects Having Insomnia Disorder; test: Example 2: subjective sleep onset latency (sSOL), sleep diary; conditions: 6.25 mg
Excerpt: As used herein, the term “subjective sleep onset latency”, abbreviated as “sSOL”, means the estimated number of minutes from the time that the subject attempted to sleep until sleep onset. In some embodiments, sSOL is derived from data entered in a subject's Sleep Diary.
In some embodiments, sleep diaries were used to assess sleep parameters reported by subjects (i.e., subjective assessments) including subjective sleep onset latency (sSOL), subjective sleep efficiency (sSE), subjective WASO (sWASO), and subjective total sleep time (sTST). Subjects were instructed to complete the Sleep Diary developed based on the consensus Sleep Diary as described in Carney et al., “The consensus sleep diary: standardizing prospective sleep self-monitoring,” Sleep 2012; 35(2):287-302. In some embodiments, the Sleep Diary was used to assess the subject's global perception of quality of sleep on the previous night with the following question: “How would you rate the quality of your sleep last night?” Subjects rated the quality of their sleep on a scale from 1 to 9, with 1 being extremely poor and 9 being extremely good. In some embodiments, the Sleep Diary was used to assess subjective ratings of morning sleepiness with the following question: “How alert/sleepy do you feel this morning?” Subjects rated their sleepiness/alertness level on a Likert scale from 1 to 9, with 1 being extremely sleepy and 9 being extremely alert.
sSOL—subjective sleep onset latency: estimated minutes from the time that the subject attempted to sleep until sleep onset.
The treatment period lasted for 31 days. Subjects were randomized in a double-blind manner and received placebo, a tablet containing 5 mg of lemborexant, a tablet containing 10 mg of lemborexant, or a tablet containing 6.25 mg of zolpidem ER.
Once home, the subject ingested study drug each night prior to bedtime and completed their sleep diary within 1 hour of waketime.

[2] = test system: Subjects Having Insomnia Disorder; test: Example 2: Insomnia Severity Index Total Score (Items 1-7); conditions: Day 31; Zolpidem ER 6.25 mg
Excerpt: As used herein, the term “Insomnia Severity Index”, abbreviated as “ISI”, is an index calculated using a 7-item, self-report questionnaire assessing the nature, severity, and impact of insomnia (see Bastien, C. H., et al. “Validation of the Insomnia Severity Index as an outcome measure for insomnia research.” Sleep Med. 2001; 2(4): 297-307). The questionnaire evaluates: (1) severity of sleep onset; (2) sleep maintenance; (3) early morning awakening problems; (4) sleep dissatisfaction; (5) interference caused by sleep difficulties with daytime functioning; (6) noticeability of sleep problems by others; and (7) distress caused by the sleep difficulties. A 5-point scale is used to rate each item (0=no problem to 4=very severe problem) yielding a total score from 0 to 28. Total ISI score (items (1)-(7)) and daytime functioning (items (4)-(7)) are analyzed separately.
On day 1 of the baseline period, subjects were admitted to the clinic and ISI, FSS, and EQ-5D-3L were administered. Blood and urine samples were collected for routine safety assessments, an ECG was performed, and vital signs and weight were assessed. The eC-SSRS was administered. Subjects who completed the baseline period and continued to meet the eligibility criteria were randomized and began the randomization phase.
On the evening of Day 30, subjects returned to the clinic. A pre-dose blood sample was collected and study drug was again administered within 5 minutes of the subject's mean habitual bedtime. A polysomnogram recording was initiated. The following morning (Day 31), postural stability and cognitive performance were assessed and a blood sample was obtained. The ISI, FSS, EQ-5D-3L and PGI-Insomnia were administered. Blood and urine samples were collected for routine safety assessment. An electrocardiogram was performed, and vital signs and weight were assessed. The eC-SSRS was then administered to the subject. At 1.5 hours after waketime, subjects rated their morning sleepiness level.

[3] = test system: Subjects Having Insomnia Disorder; test: Example 2: treatment-emergent adverse events; conditions: Zolpidem ER 6.25 mg (N = 263)
Experimental: Between 14 and 18 days after completion of the treatment period, subjects returned to the clinic for the end of study visit. The T-BWSQ and eC-SSRS were administered and routine safety assessments were conducted.
A subject who prematurely discontinued taking study drug was to return to the clinic as soon as practicable after discontinuing study drug. If the subject discontinued due to an adverse event, the adverse event must have been followed to resolution or for 2 weeks, whichever came first. Additionally, subjects who discontinued early underwent a urine drug test.

Cc1ccc(-c2nc3ccc(C)cn3c2CC(=O)N(C)C)cc1 [Zolpidem ER, zolpidem, reference compound]
sSOL Change from Study Baseline, Mean (SD) ([1]; First 7 Nights of Treatment): −16.23 (29.531) minutes | sSOL Change from Study Baseline, Median ([1]; First 7 Nights of Treatment): -10.00 min | sSOL, Mean (SD) ([1]; First 7 Nights of Treatment): 44.61 (27.566) minutes | sSOL, Median ([1]; First 7 Nights of Treatment): 34.29 min | sSOL Change from Study Baseline, Mean (SD) ([1]; Last 7 Nights of Treatment): −17.04 (30.683) minutes | sSOL Change from Study Baseline, Median ([1]; Last 7 Nights of Treatment): -10.71 min | sSOL, Mean (SD) ([1]; Last 7 Nights of Treatment): 43.64 (30.649) minutes | sSOL, Median ([1]; Last 7 Nights of Treatment): 37.50 min | sSOL, Mean (SD) ([1]; Study Baseline): 60.54 (36.350) minutes | sSOL, Median ([1]; Study Baseline): 53.21 min | Insomnia Severity Total Score (Items 1-7), Change from Study Baseline, Mean (SD) [2]: −8.26 (6.013) | Insomnia Severity Total Score (Items 1-7), Change from Study Baseline, Median [2]: −8.00 | Insomnia Severity Total Score (Items 1-7), Mean (SD) [2]: 10.98 (5.452) | Insomnia Severity Total Score (Items 1-7), Median [2]: 11.00 | Congenital anomaly/birth defect [3]: 0 n (%) | Deaths [3]: 0 n (%) | Life threatening [3]: 0 n (%) | Other SAEs [3]: 4 (1.5) n (%) | Persistent or significant disability or incapacity [3]: 0 n (%) | Requires inpatient hospitalization or prolongation of existing hospitalization [3]: 4 (1.5) n (%) | Serious TEAEs [3]: 4 (1.5) n (%) | Severe TEAEs [3]: 8 (3.0) n (%) | TEAEs [3]: 93 (35.4) n (%) | TEAEs leading to study dose reduced [3]: 0 n (%) | TEAEs leading to study drug dose adjustment [3]: 8 (3.0) n (%) | TEAEs leading to study drug interrupted [3]: 2 (0.8) n (%) | TEAEs leading to study drug withdrawal [3]: 7 (2.7) n (%) | Treatment-related TEAEs [3]: 40 (15.2) n (%)
